The subject of the assay is platelet-free plasma. In words: Thrombin clotting time experiment with platelet-free plasma. The conditions noted are these: 0.35 mL chicken platelet-free plasma at 37 °C + 0.15 mL sealant solution (peptide 1.5 mM in 25 mM PBS pH 7.4, 5 mM CaCl2, 10 µL TG 7 U/mL) or thrombin-calcium reagent; mean ± SD of two independent experiments. The method, then: Plasma was collected by centrifuging whole non-coagulated chicken blood (4500 rpm, 10 min, 4 °C). Thrombin clotting time (Figure S19) experiment was performed by incubating 0.35 mL platelet-free plasma, in a 1.5 mL microcentrifuge tube at 37 °C for 10 min, followed by the addition of the thrombin-calcium reagent, 0.15 mL, maintained at room temperature. The period of clot formation was noted. The same batch of platelet-free plasma was used to determine sealant clotting time. Platelet-free plasma 0.35 mL, was taken in a 1.5 mL microcentrifuge tube incubated at 37 °C followed by addition of 0.15 mL sealant solution. Sealant was prepared by dissolving each peptide in 25 mM PBS buffer, pH 7.4 with 5 mM CaCl2 where final conc. of the peptide was 1.5 mM followed by the addition of 10 µL TG (7 U/1 mL) soln. The period of clot formation was noted. The results are represented as mean ± SD of two independent experiments.
Figure S19. Determination of clotting time of sealants with plasma by thrombin clotting time method. The clotting time in presence of thrombin, sealants 1, 2 and 3 are 32±2, 35±1, 25±1 and 28±2 secs, respectively.

Data on 1 substance can be found in publication PMC5529531, “Engineered isopeptide bond stabilized fibrin inspired nanoscale peptide based sealants for efficient blood clotting” (Scientific Reports, 2017).

Several values for one entry are separate records, joined by “and”; a condition that tells them apart may be missing. Identical values can stand only once.

Take “thrombin: thrombin (bovine plasma), used as thrombin-calcium reagent”: the “clotting time (thrombin clotting time experiment)” value is 32±2 secs and ~ 32 ± 2 secs.
